According to patent US10791989B2, “Magnetic resonance imaging of poly-L-glutamate” (The Trustees of The University of Pennsylvania, priority 2013, dated 2020):

Assays:
cathepsin B [1] = target: T1, cathepsin B (Homo sapiens, UniProt P07858); assay: CEST imaging of phantoms (glutamate, PLG, PLG+cathepsin B) on 7T whole-body scanner; type: biochemical; settings: phantom, room temperature; for CEST contrast at 3 ppm: substance alone
Procedure: (§1) Both the CEST imaging and MRS were performed.

F98 tumor cells = settings: after addition of PLG vs without PLG, 9.4 T
Procedure: as §1
F98 cell line is known to be aggressive and expresses cathepsin B and other proteases.

cathepsin B [2] = target: T1, cathepsin B; assay: Proton MRS of phantoms (PLG+cathepsin B) on 7T whole-body scanner; type: biochemical; settings: phantom with PLG and cathepsin B
Procedure: as §1

| CEST contrast at 3 ppm after addition of cathepsin B (cathepsin B [1]; PLG with cathepsin B) | MR spectrum change with cathepsin B (cathepsin B [2]) | Compound | CEST contrast at 3 ppm (cathepsin B [1]) | increase in CEST contrast at 3 ppm (F98 tumor cells) |
| --- | --- | --- | --- | --- |
| – | – | N[C@@H](CCC(=O)O)C(=O)O [Glu, glutamate] | strong CEST contrast | – |
| appreciable CEST contrast | cleavage of 2.3 and 4.1 ppm peaks | Poly(L-glutamic acid) [PLG] | No CEST contrast | −16% |
